In patent US20230331673A1, “COMPOSITION OF COMPOUNDS THAT MODULATE CELL METABOLISM AND METHODS OF USE” (CRESCENTA BIOSCIENCES, priority 2020, published 2023):

Tested on: differentiated 3T3-L1 mouse adipocyte cells
Assay: Adipocyte glucose consumption in differentiated 3T3-L1 mouse adipocyte cells (loss of glucose from medium, colorimetric)
Type: cell-based
Settings: compound 10 μM, 22 to 24 hours, differentiated 3T3-L1 adipocytes, compound/DMSO, read-out: Glucose consumption (fold change) Mean
Procedure: Activity of compounds on adipocyte glucose consumption was tested in differentiated 3T3-L1 mouse adipocyte cells. 3T3-L1 preadipocytes (ATCC) were routinely cultured in a growth medium composed of DMEM high-glucose (Sigma), 10% FBS (Gibco), 10 U/ml penicillin and 10 μg/ml streptomycin (P/S; Gibco). To induce adipogenic differentiation, a confluent layer of 3T3-L1 cells were incubated with the growth medium containing 2 μM rosiglitazone, 1 μM dexamethasone, 500 μM IBMX, and 1 μg/ml insulin (Sigma). Forty-eight (48) hours later (on day 2) and on days 4 and 6, medium of the cells was replaced with fresh medium containing 1 μg/ml insulin. On days 8 and 10, the medium was refreshed with regular growth medium and addition of insulin was omitted. On day 11 or 12, medium of the cells were replaced with fresh medium containing either the indicated compounds (10 μM) or the vehicle in which the compounds were dissolved (DMSO). The final concentration of DMSO was 0.1% (v/v). Growth medium containing 0.1% DMSO was incubated in culture wells containing no cells and used as control. Twenty-two to 24 hours later, medium was harvested and subjected to centrifugation at 10,000 g for 5 min. Glucose concentration in the supernatants was determined using a colorimetric assay (Glucose Assay Kit I, Eton Biosciences). Glucose consumption in compound and vehicle treated cells was measured as loss of glucose from the culture medium and represented as mean fold change (compound/DMSO) t standard deviation (SD).

SMILES	fold induction at 10 µM
CCCCC1CCCc2c(n(Cc3ccccc3C)c3c(C(=O)O)cccc23)C1 (stereo not drawn) [7-butyl-5-[(2-methylphenyl)methyl]-5H,6H,7H,8H,9H,10H-cyclohepta[b]indole-4-carboxylic acid]	1.12
CCCCC1CCCc2c1c1cccc(C(=O)O)c1n2Cc1cccc(C(N)=O)c1 (stereo not drawn) [4-butyl-9-[(3-carbamoylphenyl)methyl]-2,3,4,9-tetrahydro-1H-carbazole-8-carboxylic acid]	1.35
CCCCC1Cc2c(n(Cc3cccc(C#N)c3)c3c(C(=O)O)cccc23)C1 (stereo not drawn) [2-butyl-4-[(3-cyanophenyl)methyl]-1H,2H,3H,4H-cyclopenta[b]indole-5-carboxylic acid]	1.28
CCCC1CCc2c(n(Cc3cccc(C#N)c3)c3c(C(=O)O)cccc23)C1 (stereo not drawn) [9-[(3-cyanophenyl)methyl]-2-propyl-2,3,4,9-tetrahydro-1H-carbazole-8-carboxylic acid]	1.21
CCCCCCC1CCCc2c(n(Cc3cccnc3)c3c(C(=O)O)cccc23)C1 (stereo not drawn) [7-hexyl-5-[(pyridin-3-yl)methyl]-5H,6H,7H,8H,9H,10H-cyclohepta[b]indole-4-carboxylic acid]	1.14
CCCCC1CCCCc2c1n(Cc1cccc(C#N)c1)c1c(C(=O)O)cccc21 (stereo not drawn) [6-butyl-5-[(3-cyanophenyl)methyl]-5H,6H,7H,8H,9H,10H-cyclohepta[b]indole-4-carboxylic acid]	1.16
CCCCCCC1CCCc2c(n(Cc3cncc(C#N)c3)c3c(C(=O)O)cccc23)C1 (stereo not drawn) [5-[(5-cyanopyridin-3-yl)methyl]-7-hexyl-5H,6H,7H,8H,9H,10H-cyclohepta[b]indole-4-carboxylic acid]	1.06
CCCCCCC1CCCc2c(n(Cc3cccc(C)c3)c3c(C(=O)O)cccc23)C1 (stereo not drawn) [7-hexyl-5-[(3-methylphenyl)methyl]-5H,6H,7H,8H,9H,10H-cyclohepta[b]indole-4-carboxylic acid]	1.13
CCC1CCc2c(c3cccc(C(=O)O)c3n2Cc2cccc(C#N)c2)C1 (stereo not drawn) [9-[(3-cyanophenyl)methyl]-3-ethyl-2,3,4,9-tetrahydro-1H-carbazole-8-carboxylic acid]	1.08
CCCC1CCCc2c(n(Cc3cccc(C(N)=O)c3)c3c(C(=O)O)cccc23)C1 (stereo not drawn) [5-[(3-carbamoylphenyl)methyl]-7-propyl-5H,6H,7H,8H,9H,10H-cyclohepta[b]indole-4-carboxylic acid]	1.06
CCCCC1CCCc2c(n(Cc3ccccc3C(N)=O)c3c(C(=O)O)cccc23)C1 (stereo not drawn) [7-butyl-5-[(2-carbamoylphenyl)methyl]-5H,6H,7H,8H,9H,10H-cyclohepta[b]indole-4-carboxylic acid]	1.11
CCCCCCC1CCCc2c(n(Cc3cccc(F)c3)c3c(C(=O)O)cccc23)C1 (stereo not drawn) [5-[(3-fluorophenyl)methyl]-7-hexyl-5H,6H,7H,8H,9H,10H-cyclohepta[b]indole-4-carboxylic acid]	1.14
CCCCCCC1CCc2c(n(Cc3cccc(O)c3)c3c(C(=O)O)cccc23)C1 (stereo not drawn) [2-hexyl-9-[(3-hydroxyphenyl)methyl]-2,3,4,9-tetrahydro-1H-carbazole-8-carboxylic acid]	1.11
CCC1CCCc2c1c1cccc(C(=O)O)c1n2Cc1cccc(C(N)=O)c1 (stereo not drawn) [9-[(3-carbamoylphenyl)methyl]-4-ethyl-2,3,4,9-tetrahydro-1H-carbazole-8-carboxylic acid]	1.21
CCCCCCC1CCc2c(n(Cc3ccccc3F)c3c(C(=O)O)cccc23)C1 (stereo not drawn) [9-[(2-fluorophenyl)methyl]-2-hexyl-2,3,4,9-tetrahydro-1H-carbazole-8-carboxylic acid]	1.24
CCCCC1CCCc2c1c1cccc(C(=O)O)c1n2Cc1cccc(C#N)c1 (stereo not drawn) [4-butyl-9-[(3-cyanophenyl)methyl]-2,3,4,9-tetrahydro-1H-carbazole-8-carboxylic acid]	1.28
CCCC1CCc2c(c3cccc(C(=O)O)c3n2Cc2cccc(C#N)c2)C1 (stereo not drawn) [9-[(3-cyanophenyl)methyl]-3-propyl-2,3,4,9-tetrahydro-1H-carbazole-8-carboxylic acid]	1.2
CCC1CCc2c(n(Cc3cccc(C(=O)O)c3)c3c(C(=O)O)cccc23)C1 (stereo not drawn) [9-[(3-carboxyphenyl)methyl]-2-ethyl-2,3,4,9-tetrahydro-1H-carbazole-8-carboxylic acid]	1.11
CCCCCCC1CCCc2c(n(Cc3ccc(F)cc3)c3c(C(=O)O)cccc23)C1 (stereo not drawn) [5-[(4-fluorophenyl)methyl]-7-hexyl-5H,6H,7H,8H,9H,10H-cyclohepta[b]indole-4-carboxylic acid]	1.17
CCCCCCC1CCc2c(n(Cc3cccnc3)c3c(C(=O)O)cccc23)C1 (stereo not drawn) [2-hexyl-9-[(pyridin-3-yl)methyl]-2,3,4,9-tetrahydro-1H-carbazole-8-carboxylic acid]	1.21
CCC1CCCc2c(n(Cc3cccc(C(N)=O)c3)c3c(C(=O)O)cccc23)C1 (stereo not drawn) [5-[(3-carbamoylphenyl)methyl]-7-ethyl-5H,6H,7H,8H,9H,10H-cyclohepta[b]indole-4-carboxylic acid]	0.96
CCCCC1CCCc2c(n(Cc3cccc(C#N)c3)c3c(C(=O)NCC(=O)O)cccc23)C1 (stereo not drawn) [2-({7-butyl-5-[(3-cyanophenyl)methyl]-5H,6H,7H,8H,9H,10H-cyclohepta[b]indol-4-yl}formamido)acetic acid]	1.2
CCCCCCC1CCCc2c(n(Cc3cccc(C#N)c3F)c3c(C(=O)O)cccc23)C1 (stereo not drawn) [5-[(3-cyano-2-fluorophenyl)methyl]-7-hexyl-5H,6H,7H,8H,9H,10H-cyclohepta[b]indole-4-carboxylic acid]	1.36
CCCCCCCCC1CCCc2c(n(Cc3cccc(C#N)c3)c3c(C(=O)O)cccc23)C1 (stereo not drawn) [5-[(3-cyanophenyl)methyl]-7-octyl-5H,6H,7H,8H,9H,10H-cyclohepta[b]indole-4-carboxylic acid]	1.12
CCC1CCc2c1n(Cc1cccc(C#N)c1)c1c(C(=O)O)cccc21 (stereo not drawn) [4-[(3-cyanophenyl)methyl]-3-ethyl-1H,2H,3H,4H-cyclopenta[b]indole-5-carboxylic acid]	1.12
CCCCC1CCCc2c(n(Cc3cccc(OC)c3)c3c(C(=O)O)cccc23)C1 (stereo not drawn) [7-butyl-5-[(3-methoxyphenyl)methyl]-5H,6H,7H,8H,9H,10H-cyclohepta[b]indole-4-carboxylic acid]	1.23
CCCCCCC1CCc2c(n(Cc3cccc(C#N)c3)c3c(C(=O)O)cccc23)C1 (stereo not drawn) [9-[(3-cyanophenyl)methyl]-2-hexyl-2,3,4,9-tetrahydro-1H-carbazole-8-carboxylic acid]	1.16
CCCCC1CCCc2c(n(Cc3cccc(C(N)=O)c3)c3c(C(=O)O)cccc23)C1 (stereo not drawn) [7-butyl-5-[(3-carbamoylphenyl)methyl]-5H,6H,7H,8H,9H,10H-cyclohepta[b]indole-4-carboxylic acid]	1.12
CCCCC1CCc2c(n(Cc3cccc(C(N)=O)c3)c3c(C(=O)O)cccc23)C1 (stereo not drawn) [2-butyl-9-[(3-carbamoylphenyl)methyl]-2,3,4,9-tetrahydro-1H-carbazole-8-carboxylic acid]	1.1
CCCCCC1Cc2c(n(Cc3cccc(C#N)c3)c3c(C(=O)O)cccc23)C1 (stereo not drawn) [4-[(3-cyanophenyl)methyl]-2-pentyl-1H,2H,3H,4H-cyclopenta[b]indole-5-carboxylic acid]	1.18
